PMC10817943 (Nature Communications, 2024)
Read-outs that look alike come from different tables or passages of the source.

Key:
[1] = test system: M. smegmatis mc^2155 reporter strain harboring PrecA-LUX; details: RecA reporter, ciprofloxacin 0.06 µg/mL, MPA 0.125 µg/mL
[2] = test system: M. smegmatis mc^2155 reporter strain harboring PradA-LUX; details: RadA reporter, ciprofloxacin 0.06 µg/mL, MPA 0.125 µg/mL

O=C(O)c1cn(C2CC2)c2cc(N3CCNCC3)c(F)cc2c1=O [ciprofloxacin, Ciprofloxacin, reference compound]
luminescence induction ([1]; elapsed time 0:00:00): 1225 RLU | luminescence induction ([1]; elapsed time 3:00:00): 9623 RLU | luminescence induction ([1]; elapsed time 6:00:00): 25614 RLU | luminescence induction ([1]; elapsed time 9:00:00): 37445 RLU | luminescence induction ([1]; elapsed time 12:00:00): 44651 RLU | luminescence induction ([1]; elapsed time 15:00:00): 48781 RLU | luminescence induction ([1]; elapsed time 18:00:00): 52120 RLU | luminescence induction ([1]; elapsed time 21:00:00): 57807 RLU | luminescence induction ([1]; elapsed time 24:00:00): 68911 RLU | luminescence induction ([1]; elapsed time 27:00:00): 89348 RLU | luminescence induction ([1]; elapsed time 30:00:00): 122834 RLU | luminescence induction ([1]; elapsed time 33:00:00): 178492 RLU | luminescence induction ([1]; elapsed time 36:00:00): 273065 RLU | luminescence induction ([1]; elapsed time 39:00:00): 424870 RLU | luminescence induction ([1]; elapsed time 42:00:00): 486228 RLU | luminescence induction ([1]; elapsed time 45:00:00): 462582 RLU | luminescence induction ([1]; elapsed time 48:00:00): 485841 RLU | luminescence induction ([1]; elapsed time 51:00:00): 408474 RLU | luminescence induction ([1]; elapsed time 54:00:00): 246511 RLU | luminescence induction ([1]; elapsed time 57:00:00): 125742 RLU | luminescence induction ([1]; elapsed time 60:00:00): 64490 RLU | luminescence induction ([1]; elapsed time 63:00:00): 37695 RLU | luminescence induction ([1]; elapsed time 66:00:00): 23762 RLU | luminescence induction ([1]; elapsed time 69:00:00): 17429 RLU | luminescence induction ([1]; elapsed time 72:00:00): 13645 RLU | luminescence induction ([1]; elapsed time 75:00:00): 10589 RLU | luminescence induction ([1]; elapsed time 78:00:00): 8697 RLU | luminescence induction ([1]; elapsed time 81:00:00): 7129 RLU | luminescence induction ([1]; elapsed time 84:00:00): 6189 RLU | luminescence induction ([1]; elapsed time 87:00:00): 5163 RLU | luminescence induction ([2]; elapsed time 0:00:00): 123 RLU | luminescence induction ([2]; elapsed time 3:00:00): 1612 RLU | luminescence induction ([2]; elapsed time 6:00:00): 2073 RLU | luminescence induction ([2]; elapsed time 9:00:00): 2126 RLU | luminescence induction ([2]; elapsed time 12:00:00): 1993 RLU | luminescence induction ([2]; elapsed time 15:00:00): 2134 RLU | luminescence induction ([2]; elapsed time 18:00:00): 2689 RLU | luminescence induction ([2]; elapsed time 21:00:00): 4077 RLU | luminescence induction ([2]; elapsed time 24:00:00): 6491 RLU | luminescence induction ([2]; elapsed time 27:00:00): 10903 RLU | luminescence induction ([2]; elapsed time 30:00:00): 19150 RLU | luminescence induction ([2]; elapsed time 33:00:00): 33571 RLU | luminescence induction ([2]; elapsed time 36:00:00): 56395 RLU | luminescence induction ([2]; elapsed time 39:00:00): 67383 RLU | luminescence induction ([2]; elapsed time 42:00:00): 103238 RLU | luminescence induction ([2]; elapsed time 45:00:00): 85422 RLU | luminescence induction ([2]; elapsed time 48:00:00): 47660 RLU | luminescence induction ([2]; elapsed time 51:00:00): 21645 RLU | luminescence induction ([2]; elapsed time 54:00:00): 9619 RLU | luminescence induction ([2]; elapsed time 57:00:00): 4843 RLU | luminescence induction ([2]; elapsed time 60:00:00): 2928 RLU | luminescence induction ([2]; elapsed time 63:00:00): 1993 RLU | luminescence induction ([2]; elapsed time 66:00:00): 1543 RLU | luminescence induction ([2]; elapsed time 69:00:00): 1199 RLU | luminescence induction ([2]; elapsed time 72:00:00): 998 RLU | luminescence induction ([2]; elapsed time 75:00:00): 761 RLU | luminescence induction ([2]; elapsed time 78:00:00): 636 RLU | luminescence induction ([2]; elapsed time 81:00:00): 547 RLU | luminescence induction ([2]; elapsed time 84:00:00): 460 RLU | luminescence induction ([2]; elapsed time 87:00:00): 387 RLU
